Laboratory results as given in paper PMC12091851, “Replacing a Cereblon Ligand by a DDB1 and CUL4 Associated Factor 11 (DCAF11) Recruiter Converts a Selective Histone Deacetylase 6 PROTAC into a Pan‐Degrader” (Chemmedchem, 2025).

Key:
MM.1S cells = experiment: Cell cycle analysis by PI staining and flow cytometry; format: cell-based, human; settings: 10 μM, 48 h
Procedure: GraphPad Prism (GraphPad Software). […]
Biotech), resuspended in 1 mL EtOH/D PBS (7/3 v/v), and fixed for 30 min at 4 °C. The samples were rehydrated with DPBS and treated with 5 µg /mL RNAse ( Catalog# EN0531 , ThermoFisher Scientific Inc.) for 15 min at room temperature. The staining was performed with 3 µM propidium iodide (in DPBS) for 15 min at room temperature and analyzed by flow cytometry ( Guava easyCyteTM, Luminex, […]
Lakes, NJ, USA), using the Watson Pragmatic algorithm.[6] GraphPad Prism (GraphPad Software) was used for normalization, statistical analysis, and bar graph creation. Significance testing was performed with a one-way analysis of variance (ANOVA). Dunnett’s post-hoc test was employed to obtain […]
Final DMSO concentration was 0.1%.
Staining was performed with
Fluorescence was measured by flow cytometry (Guava® easyCyteTM, Luminex, Austin, Texas). GraphPad Prism (GraphPad Software) was used for normalization, statistical analysis, and bar graph creation. Significance testing was performed with a one-way analysis of variance (ANOVA).
Subsequently, cells were harvested and […]
After 30 minutes of incubation at […]
Dunnett’s post-hoc test was employed

HDAC6 = target: T1, HDAC6 (Homo sapiens, UniProt Q9UBN7); experiment: Immunoblot HDAC6 degradation in MM.1S cell lysates; format: cell-based; design: endogenous in cells; host or cells: MM.1S; settings: MM1.S, MM.1S cells, 24 h, read-out: maximal degradation (Dmax) HDAC6
T1 sequence (Q9UBN7 1-1215): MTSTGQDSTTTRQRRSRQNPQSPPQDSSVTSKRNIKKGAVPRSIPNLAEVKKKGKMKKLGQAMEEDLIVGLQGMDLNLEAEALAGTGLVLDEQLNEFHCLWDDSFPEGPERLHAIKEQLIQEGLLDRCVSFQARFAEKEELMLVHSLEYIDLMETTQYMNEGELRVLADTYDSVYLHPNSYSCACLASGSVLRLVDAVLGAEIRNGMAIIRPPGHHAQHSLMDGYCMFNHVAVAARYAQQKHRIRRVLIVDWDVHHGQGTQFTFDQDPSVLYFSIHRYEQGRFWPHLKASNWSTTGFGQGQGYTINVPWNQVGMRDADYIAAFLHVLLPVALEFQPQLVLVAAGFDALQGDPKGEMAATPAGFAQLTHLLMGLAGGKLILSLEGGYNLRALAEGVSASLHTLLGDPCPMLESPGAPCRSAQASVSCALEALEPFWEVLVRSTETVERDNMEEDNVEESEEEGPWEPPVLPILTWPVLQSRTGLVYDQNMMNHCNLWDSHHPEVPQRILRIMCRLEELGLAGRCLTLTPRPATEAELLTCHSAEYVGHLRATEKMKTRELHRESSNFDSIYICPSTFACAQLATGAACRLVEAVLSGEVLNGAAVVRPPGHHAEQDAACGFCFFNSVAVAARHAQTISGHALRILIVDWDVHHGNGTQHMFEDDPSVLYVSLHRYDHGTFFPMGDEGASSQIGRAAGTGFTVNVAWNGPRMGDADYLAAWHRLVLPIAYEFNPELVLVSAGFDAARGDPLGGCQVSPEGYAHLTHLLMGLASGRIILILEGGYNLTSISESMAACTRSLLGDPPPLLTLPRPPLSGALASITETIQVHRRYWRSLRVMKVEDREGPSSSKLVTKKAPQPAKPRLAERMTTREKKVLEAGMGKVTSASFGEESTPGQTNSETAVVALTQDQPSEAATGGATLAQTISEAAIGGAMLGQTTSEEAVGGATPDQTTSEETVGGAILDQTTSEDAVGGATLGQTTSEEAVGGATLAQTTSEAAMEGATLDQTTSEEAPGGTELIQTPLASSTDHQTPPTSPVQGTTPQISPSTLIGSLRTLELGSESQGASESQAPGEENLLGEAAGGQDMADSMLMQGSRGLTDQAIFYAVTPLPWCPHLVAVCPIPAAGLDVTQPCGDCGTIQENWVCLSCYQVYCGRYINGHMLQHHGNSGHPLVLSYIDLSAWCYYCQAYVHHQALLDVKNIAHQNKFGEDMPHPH
Procedure: Figure 6 Examination of HDAC isoform degradation. MM.1S cells were treated with the indicated compounds (10 μM) or vehicle (DMSO) for 24 h. HDAC1, 2, 4, and 6 levels were analyzed by immunoblotting. (A) Representative images from a total of n=3 biological replicates.
2.5. Aqueous Stability Assay
For stability testing in aqueous solution, a 10-fold concentrated DMSO solution of the respective compounds was diluted in DPBS to generate a 10 µM concentration (final DMSO content of 10%).
Samples of the aqueous solutions were taken after 0, 24, 48, and 72 h at room temperature and the amounts of the parental compound and potential fragments were monitored by HPLC gradient A (see 3.1 General Information). The peak area of the 0 h sample was used for normalization. All compounds were tested in duplicates and GraphPad Prim was used for evaluation and data visualization.
The cell lysis was performed as descripted in 3.2. Simple Western Immunoassay. Samples were denatured by Laemmli 2× Concentrate (Catalog# S3401-10VL, Sigma-Aldrich) for 5 min at 95 °C, and […]
Bio-Rad, Hercules, CA, USA). […]
6.1 (Bio-Rad) for quantification. […]
In vitro inhibitory activities against HDAC1, 2 , and 6 were measured using a previously published protocol.[3] In vitro inhibitory activities against HDAC4 were measured using a previously published protocol with slight modifications. […]

Row | SMILES | effect on cell cycle phases (MM.1S cells) | Dmax at 10 µM (HDAC6)
1 | O=C(CCCCCCNC(=O)c1ccc(N(C(=O)CCl)C(C(=O)NCc2ccccc2)c2ccc(Cl)c(Cl)c2)cc1)NO (stereo not shown) [Compound 2] | increase of the sub G1 phase, while the S phase was decreased | 26%
2 | O=C(CCCCCCNC(=O)c1ccc(NC(=O)CCCCCCCCCCCN(C(=O)CCl)C(C(=O)NCc2ccccc2)c2ccc(Cl)c(Cl)c2)cc1)NO (stereo not shown) [Compound 1j] | increase of the sub G1 phase, while the S phase was decreased | 71 to 76%
